Source: PMC12833730, “Discovery of a First‐in‐Class Covalent Allosteric SHP1 Inhibitor with Immunotherapeutic Activity” (Angewandte Chemie (International Ed. in English), 2025)
“Also recorded” adds a separate entry of the source.

Key:
MC38 tumors = test: CD8+ T cell / NK cell depletion in MC38 syngeneic model; type: in vivo, C57BL/6 mice
Description: To further establish whether the inhibitory effects of M029 on tumor progression could be attributable to enhanced antitumor immune responses, we treated MC38 tumors in nude mice. […] To evaluate the importance of CD8^+ T and NK cells in M029‐induced antitumor activity, we induced CD8^+ T cell or NK cell depletion in the MC38 syngeneic model using anti‐CD8 or anti‐NK1.1 antibodies as described in Figure 6c. […] These findings are consistent with the known role of SHP1 in T cells and with our in vitro data that indicate M029 enhances T cell activation with no direct effect on tumor cells. […] These findings align with previous reports that activated CD8^+ T cells recruit NK cells to tumors through releasing cytokines and chemokines like IFN‐γ.^[ [92] ^] The observed changes in immune activity induced by M029, such as increased tumor infiltration of cytotoxic CD8^+ T cells, enhanced T cell cytotoxicity and effector function, as well as improved NK cell infiltration and activation, collectively contribute to the anticancer effects exerted by M029 treatment.
Figure 6 Cytotoxic T‐cell activity is necessary for M029 antitumor activity. […] C57BL/6 mice were injected with anti‐CD8 or anti‐NK1.1 antibodies every 3–4 days for 8 days after tumor inoculation. Mice were orally dosed with M029 or control vehicle every day for 10 days after tumor inoculation at the same time (Control, n = 4; M029, n = 6; M029 + anti‐NK1.1, n = 6; M029 + anti‐CD8, n = 6). […] This difference implied that the CD8^+ T cells were critical to induce the NK cell infiltration in M029‐treated mice, and the depletion of CD8^+ T cells diminished M029's efficacy because of the absence of activated T cells and infiltrated NK cells. Statistical analyses were performed with Graphpad Prism software 10.4.2 through the student t test or the one‐way ANOVA test using Turkey post‐hoc comparison. *p < 0.05, **p < 0.01, ***p < 0.001, and ****p < 0.0001 were considered significant. Figures are plotted as average ± standard error of the mean (SEM).
Figure S6. Representative flow cytometry results of CD8^+ T/NK cell depletion studies. In the control group and the M029-treated group, CD8^+ T cells make up ~7% of immune cells and NK cells make up ~2% of immune cells. For mice treated with anti-NK1.1 antibody, the NK cell population is negligible (<0.1%). For mice treated with anti-CD8^+ antibody, the CD8^+ T cell population dropped to ~0.1%.
For immune cell profiling in the tumor microenvironment, tumor samples were first reduced to single-cell suspensions by compressing the tumors through a 70 µm filter (Falcon, #352350) into cold 1× PBS supplemented with 5 mM EDTA using the plunger of a syringe (HSW, #4010-200V0). Samples were strained through a second filter and then re-suspended in cold blocking buffer made of 5% BSA, 0.5 mM EDTA, and a 1:1000 dilution of CD16/32. Samples were then incubated with following fluorophore-conjugated antibodies. […]

MC38 colorectal tumors = test: MC38 syngeneic tumor model; type: in vivo, C57BL/6 mice; details: IP 15 mg/kg as printed in Figure S5

SMILES: N#Cc1ccsc1NS(=O)(=O)c1ccc(NC(=O)CCl)cc1 [M029, 2-Chloro-N-(4-(N-(3-cyanothiophen-2-yl)sulfamoyl)phenyl)acetamide]
- M029-induced NK cell tumor infiltration after CD8+ T cell depletion (MC38 tumors; M029 + anti-CD8): abolishment of the increase in NK cell tumor infiltration
- CD8+ T cell population of immune cells (MC38 tumors; flow cytometry, Figure S6): ~ 7%
- NK cell population of immune cells (MC38 tumors; flow cytometry, Figure S6): ~ 2%
- antitumor efficacy in CD8+ T-cell-depleted mice (MC38 tumors; oral M029 + anti-CD8): no antitumor efficacy; also recorded: completely abolished
- antitumor effects in NK cell-depleted mice (MC38 tumors; oral M029 + anti-NK1.1): remained unaffected; also recorded: did not impact
- MC38 tumor progression, IP dosage (MC38 colorectal tumors): delayed MC38 tumor progression
